{"source": "patent US20250034510A1", "about": "“SYSTEMS, DEVICES, AND METHODS FOR BIOLOGICAL MATERIAL RESTORATION AND/OR CRYOPRESERVATION” (Oregon State University, priority 2023, published 2025)", "key": {"[1]": {"tested_on": "nucleus pulposus (NP) cells", "test": "Cytotoxicity of CPA 1 on NP cells in monolayer culture (LIVE/DEAD assay)", "type": "cell-based, bovine", "conditions": "PG as part of CPA 1 (FIG. 13)", "text": "In this example, NP cells were isolated following a protocol adapted and modified from Wiseman et al. (Wiseman, M. A., H. L. Birch, M. Akmal, and A. E. Goodship, Spine, 2005, 30:505-11). Two freshly skinned skeletally mature bovine tails were obtained from a local abattoir, disinfected for five minutes in a 1% Betadine solution (RC3955, VWR International, PA), and allowed to dry in a sterile environment for ten minutes. Muscle and fat tissue were removed from each tail, exposing the IVDs. The isolated IVDs were wrapped with a sterile gauze soaked in 0.9% sodium chloride (IC102892.5, VWR International, PA) and 55 mM sodium citrate (BDH9288, VWR International, PA) while awaiting dissection.\nNP tissue was removed with a scalpel, cut into 4 mm^2 pieces, and digested in a humidified cell incubator at 37° C. and 5% CO2. […]\nIn this example, NP cells were cultured in 6 well-plates to elucidate the cytotoxicity of CPA 1 composed of 80% DMEM (D6046, Sigma), 10% DMSO (IC0219605590, VWR International, PA), and % 10 propylene glycol (PG) (P4347, Sigma, MO). […] Cells were stained with a fluorescent LIVE/DEAD™ assay (L3224, ThermoFisher, MA) and scanned using Keyence BZ-X700 fluorescence microscope (Oregon State University, OR). […]"}, "[2]": {"test": "DMSO penetration in IVDs tracked by CT", "type": "in vitro ADME, bovine", "conditions": "for DMSO saturation level: free swelling IVD without compression, 10% DMSO", "experimental": "In this example, the transport of DMSO in free-swelling IVDs was assessed. Three skeletally mature Black Angus bovine IVDs were incubated in 10% DMSO for three days and CT-scanned at 0, 24, 56, and 72 hours. DMSO penetration was tracked using a Toshiba Aquilion 64-slice Computed Tomography (CT) unit provided by the Carlson College of Veterinary Medicine at Oregon State University. Acquisition parameters were set to 120 kVp, 240 FoV, 0.6 pitch, and 250 mA.\nMaterialize Mimics® 21.0 was used to segment the IVD's soft tissue (AF and NP). A code was developed in MATLAB® 9.9 to perform a Gaussian curve-fitting analysis of the segmented scans, estimating the mean signal intensity (FIG. 12).\nThe correlation in equation 1 was developed To relate mean signal intensity to penetration %, the mean signal intensity was normalized for the sample of interest (IVDn) to the intensities of both a fresh IVD (IVD0) and a fully-saturated IVD (IVDF*).\nThe effectiveness of PrimeGrowth™ (n=3) and compression (n=3) in improving the transport of DMSO and decreasing cell CPA exposure time were also assessed. PrimeGrowth™ is designed to clear blood clots in the CEP, improving transport through its pores and channels. Axial compression could enhance the convection transport of fluids in the IVD. IVDs treated with PrimeGrowth™ were incubated in a 30 mL Isolation Medium for one hour and rinsed in an equal volume of Neutralization Medium for two minutes. In a separate protocol, bovine IVDs were compressed in a custom-built bioreactor for four hours under a sine-wave load (0 MPa to 2.5 MPa at 0.1 Hz) and soaked in 10% DMSO. DMSO penetration in IVDs was tracked via CT scans compared to a control group (n=3) soaking in 10% DMSO. CT scans were acquired at 0, 5, 8, 24, and 36 hours."}}, "note": "“And” between values parts separate entries of the source, which are not always exact repeats. Identical values can stand only once."}
{"smiles": "CC(O)CO", "note": "(stereo not shown) [PG, propylene glycol]", "values": [{"measurement": "effect on cell viability in a monolayer cell culture", "setting": "[1]", "value": "devastating for cell viability"}]}
{"smiles": "C[S+](C)[O-]", "note": "[DMSO, dimethylsulfoxide]", "values": [{"measurement": "time required for DMSO to fully saturate the disc", "setting": "[2]; IVD compressed before soaking in 10% DMSO", "value": 3, "unit": "h"}, {"measurement": "time required to reach a 75% level of penetration", "setting": "[2]; IVD without compression", "value": 72, "unit": "h"}, {"measurement": "time to reach equilibrium with the surrounding solution", "setting": "[2]; IVD without compression (FIG. 14)", "value": 72, "unit": "h"}, {"measurement": "DMSO penetration", "setting": "[2]; compression then free swelling, in 3 to 4 hours", "value": "about 90%"}, {"measurement": "decrease of the time required for full penetration by compression (improvement)", "setting": "[2]; compression vs no compression", "value": "96% and 95%"}, {"measurement": "DMSO penetration", "setting": "[2]; compression, at 3 hours", "value": 97, "unit": "%"}, {"measurement": "DMSO saturation level", "setting": "[2]; after 24 hours", "value": 50, "unit": "%"}, {"measurement": "DMSO saturation level", "setting": "[2]; by 72 hours of incubation", "value": 75, "unit": "%"}, {"measurement": "mean DMSO penetration % compared to time 0 (one-way ANOVA, p<0.05)", "setting": "[2]; free-swelling IVDs, after 24 hours of incubation", "value": "significantly different"}]}
